Laboratory results: patent US7884136B2, “Modified-release formulations of a bupropion salt” (Biovail Laboratories International S.R.L., priority 2005, dated 2011)

Assay: Moisture content of bupropion salts by KF
Format: physicochemical
Conditions: original API salts
Procedure: (§1) The eight salts were first evaluated by HPLC, KF, pH and DSC for purity, water content, aqueous pH and possible polymorphs.
(§2) The salts were analysed by DSC (at 10° C./min from 30° C. up to 400° C.) and the pH (aq. 0.5%), and the moisture content by KF were also measured. The TGA was performed on the HCl, maleate, tosylate and HBr salts.

Molecule	KF (moisture content), Original (Initial APIs) [%]
CC(NC(C)(C)C)C(=O)c1cccc(Cl)c1.O=C(O)C(O)C(O)C(=O)O (stereo not drawn) [Bupropion tartrate acid]	0.18
CC(NC(C)(C)C)C(=O)c1cccc(Cl)c1.CC(NC(C)(C)C)C(=O)c1cccc(Cl)c1.O=C(O)C(O)C(O)C(=O)O (stereo not drawn) [Bupropion tartrate neutral]	0.14
Bupropion Fumarate	0.09
Bupropion succinate	0.13

Assay: not given
Conditions: PEG Glycerol Fatty Acid Esters; cited from earlier work

Molecule	HLB
PEG-20 glyceryl oleate	>10
PEG-30 glyceryl oleate	>10

Same assay, conditions: PEG-Fatty Acid Diester Surfactants; cited from earlier work

Molecule	HLB
PEG-4 dilaurate [listing 1 of 2 here]	7
PEG-4 dilaurate [listing 2 of 2 here]	6
PEG-4 dioleate	6
PEG-4 distearate	5
PEG-6 dilaurate	9.8
PEG-6 dioleate	7.2
PEG-6 distearate	6.5
PEG-8 dioleate	8.8
PEG-10 dipalmitate	>10
PEG-12 dilaurate	11.7
PEG-12 dioleate	10
PEG-12 distearate	10.7
PEG-400 dioleate	>10
PEG-400 distearate	>10

Same assay, conditions: PEG-Fatty Acid Monoester Surfactants; cited from earlier work

Molecule	HLB
PEG-2 oleate	4.5
PEG-2 stearate	4
PEG-4 oleate	8.3
PEG-4 stearate	6.5
PEG-5 oleate	9.5
PEG-5 stearate	9.5
PEG-6 stearate	9.7
PEG-7 oleate	10.4
PEG-9 oleate	>10
PEG-9 stearate	>10
PEG-12 oleate	14
PEG-12 ricinoleate	>10
PEG-12 stearate	14
PEG-15 stearate	14
PEG-30 stearate	>10
PEG-40 oleate	17.4
PEG-40 stearate	>10
PEG-50 stearate	>10
PEG-100 oleate	18.8
PEG-100 stearate	19
PEG-200 oleate	>10
PEG-400 oleate	>10
PEG-600 oleate	>10

Same assay, conditions: Polyglycerized Fatty Acids; cited from earlier work

Molecule	HLB
Polyglyceryl-2 dioleate	7
Polyglyceryl-2 isostearate	5-7
Polyglyceryl-2 oleate	5-7
Polyglyceryl-2 stearate	5-7
Polyglyceryl-3 dioleate	<10
Polyglyceryl-3 distearate	<10
Polyglyceryl-3 oleate	6.5
Polyglyceryl-4 oleate	5-7
Polyglyceryl-4 pentaoleate	<10
Polyglyceryl-4 stearate	5-6
Polyglyceryl-6 oleate	9
Polyglyceryl-6 pentaoleate	<10
Polyglyceryl-10 decaisostearate	<10
Polyglyceryl-10 decaoleate	3.5
Polyglyceryl-10 oleate	14
Polyglyceryl-10 pentaoleate	3.5
Polyglyceryl-10 septaoleate	3
Polyglyceryl-10 tetraoleate	6.2
Polyglyceryl-10 trioleate	7

Same assay, conditions: Sorbitan Fatty Acid Ester Surfactants; as reported by the manufacturer; cited from earlier work

Molecule	HLB
Sorbitan monoisostearate	4.7
Sorbitan monooleate	4.3
Sorbitan monostearate	4.7
Sorbitan sesquistearate	4.2
Sorbitan trioleate	4.3

Same assay, conditions: Sterol and Sterol Derivative Surfactants; cited from earlier work

Molecule	HLB
PEG-24 cholesterol ether	>10
PEG-30 cholestanol	>10

Same assay, conditions: Sugar Ester Surfactants; as reported by the manufacturer; cited from earlier work

Molecule	HLB
Sucrose dipalmitate	7.4
Sucrose distearate	3
Sucrose monopalmitate	>10

Same assay, conditions: Transesterification Products of Oils and Alcohols; cited from earlier work

Molecule	HLB
Pentaerythrityl tetraisostearate	<10

Assay: Recrystallization screen for bupropion hydrobromide polymorphic forms (PXRD)
Format: physicochemical
Conditions: Form I in rotavapor 100° C. 24 h
Procedure: (§3) It is well known that organic molecules can crystallize into solid forms. Moreover the same organic compound may assume different crystalline arrangements in solid form, depending on the conditions under which the crystal product is formed. This phenomenon is commonly known as polymorphism. A study was undertaken to explore the polymorphic forms of bupropion hydrobromide. The crystal forms of the products obtained in this study were determined by powder X-ray diffraction (PXRD). A RIGAKU miniflex instrument (Radiation Cu K∝, generator 30 KV, filter Ni) was used to obtain the PXRD data.
Polymorphic form II was obtained by recrystallization of form 1 from solvents or mixtures of solvents such as acetone-water, methanol, dichloromethane, toluene-methanol and dimethylcarbonate-methanol. Polymorphic form III was obtained by recrystallization of polymorphic form I in methanol. Table 80 provides a list of recrystallization conditions and the polymorphic form obtained under each set of conditions.

Molecule	K.F. (%)
Br.CC(NC(C)(C)C)C(=O)c1cccc(Cl)c1 (stereo not drawn) [Bupropion Hydrobromide 116]	0.45

Same assay, conditions: recrystallized product; solvent/cosolvent differ per trial, trial no. in label

Molecule	K.F. (%)
Br.CC(NC(C)(C)C)C(=O)c1cccc(Cl)c1 (stereo not drawn) [Bupropion Hydrobromide 097]	0.06
Br.CC(NC(C)(C)C)C(=O)c1cccc(Cl)c1 (stereo not drawn) [Bupropion Hydrobromide 098A]	0.13
Br.CC(NC(C)(C)C)C(=O)c1cccc(Cl)c1 (stereo not drawn) [Bupropion Hydrobromide 098B]	0.16
Br.CC(NC(C)(C)C)C(=O)c1cccc(Cl)c1 (stereo not drawn) [Bupropion Hydrobromide 099]	0.12
Br.CC(NC(C)(C)C)C(=O)c1cccc(Cl)c1 (stereo not drawn) [Bupropion Hydrobromide 108]	0.14
Br.CC(NC(C)(C)C)C(=O)c1cccc(Cl)c1 (stereo not drawn) [Bupropion Hydrobromide 111]	0.32
Br.CC(NC(C)(C)C)C(=O)c1cccc(Cl)c1 (stereo not drawn) [Bupropion Hydrobromide 112]	0.18
Br.CC(NC(C)(C)C)C(=O)c1cccc(Cl)c1 (stereo not drawn) [Bupropion Hydrobromide 113]	0.39
Br.CC(NC(C)(C)C)C(=O)c1cccc(Cl)c1 (stereo not drawn) [Bupropion Hydrobromide 117]	0.32
Br.CC(NC(C)(C)C)C(=O)c1cccc(Cl)c1 (stereo not drawn) [Bupropion Hydrobromide 122]	1.3

Assay: pH of 0.5% aqueous solution of bupropion salts
Format: physicochemical
Conditions: 0.5% aqueous solution, original API salts
Procedure: as §1, §2

Molecule	pH (aq. 0.5%), Original (Initial APIs)
CC(NC(C)(C)C)C(=O)c1cccc(Cl)c1.O=C(O)C(O)C(O)C(=O)O (stereo not drawn) [Bupropion tartrate acid]	3.62
CC(NC(C)(C)C)C(=O)c1cccc(Cl)c1.CC(NC(C)(C)C)C(=O)c1cccc(Cl)c1.O=C(O)C(O)C(O)C(=O)O (stereo not drawn) [Bupropion tartrate neutral]	3.62
Bupropion Fumarate	3.84
Bupropion succinate	4.82

Assay: Forced degradation stability study of bupropion salts spiked with placebo/excipients, closed vials, 40° C./75% RH, HPLC assay and impurities
Conditions: 10 days, 40° C./75% RH, closed vials, with or without excipients
Procedure: The stability of the salts was evaluated based on the formation of the main degradation products (see below) as determined by HPLC analysis and the % potency (or assay) of the API, after specific time periods in the stability chamber. The effect of the addition of solvents, such as water, ethanol and isopropyl alcohol, was also studied.
The samples of each salt and the spiked salts with the bupropion HCl XL were prepared under the conditions mentioned in Table 4. […] The stability of the bupropion salts were evaluated based on the formation of the main degradation product 3-chlorobenzoic acid (3-CBZ) and the intermediate degradation products diketone 827U76 and the ketohydroxyl derivatives (20U78 and 852U77) (Scheme 2).
As mentioned above, the stability samples were prepared in 2 mL vials and used directly for assay and impurity analysis by HPLC without further sample preparations to minimize errors.

Molecule	Stability in the 10 days forced degradation study
tartrate	not stable

Same assay, conditions: DS and spiked DS, 40° C./75% RH

Molecule	Stability in the forced degradation stability studies, overall
oxalate	very poor
tartrate	very poor

Same assay, conditions: In IPA/EtOH, 32 days, closed vials

Molecule	Content of impurity 3-CBZ, order of salts	Content of impurity 852U77, order of salts	Total imp., order of salts
Bupropion Fumarate	maleate > HBr > HCl > Fumarate	fumarate > HBr ≈ HCl ≈ maleate ≈ tosylate	fumarate > maleate > HBr > HCl > tosylate

Same assay, conditions: In water, 32 days, closed vials

Molecule	Content of impurity 3-CBZ, order of salts	Content of impurity 852U77, order of salts	Total imp., order of salts
Bupropion Fumarate	HCl > HBr ≈ maleate ≈ fumarate	fumarate > HBr > maleate > HCl	fumarate > HBr > HCl > tosylate > maleate

Assay: Stability of bupropion HBr polymorphic forms I, II and III by PXRD under ICH conditions
Format: physicochemical
Conditions: ICH conditions 40° C., 75% R.H.; listed as form I, hydrobromide
Procedure: as §3, with “A study was undertaken to explore the polymorphic forms of bupropion hydrobromide.” left out
The three polymorphic forms were subjected to stability testing. […] Samples of the polymorphic forms II and III were tested after 1 month under the same accelerated stability conditions.
Samples of bupropion HBr form I were subjected to the conditions for the accelerated stability study as described in Example 10 and the shelf life stability study as described in Example 11.
10 g of bupropion HBr form I were dissolved in a mixture of 170 ml of acetone and 7 ml of water. The mixture was brought to reflux with dissolution of the solid. The solution was then cooled to room temperature. After one night the precipitate formed was filtered and dried at 40° C. under vacuum (30 mmHg) for 12 hours. […] The crystalline form was checked after maintaining the product under these conditions for 1 month.
The mixture was brought to reflux obtaining complete dissolution of the solid. The solution was then cooled to room temperature without stirring and left in these conditions for 18 hours. The resulting crystalline solid was then filtered and dried under vacuum (30 mmHg) at 50° C. for 4 hours. […] The crystalline form was checked after maintaining the product in these conditions for 1 month.

Molecule	Stability of the polymorphic form (words)
Br.CC(NC(C)(C)C)C(=O)c1cccc(Cl)c1 (stereo not drawn) [Form I, bupropion hydrobromide]	quite stable

Same assay, conditions: ICH conditions 40° C., 75% R.H.; listed as form II, hydrobromide

Molecule	Stability of the polymorphic form (words)
Br.CC(NC(C)(C)C)C(=O)c1cccc(Cl)c1 (stereo not drawn) [Form II, bupropion hydrobromide]	quite stable

Same assay, conditions: ICH conditions 40° C./75% r.h., 1 month; listed as bupropion HBr form II, hydrobromide

Molecule	PXRD profile / crystalline form after storage (words)
Br.CC(NC(C)(C)C)C(=O)c1cccc(Cl)c1 (stereo not drawn) [Form II, bupropion hydrobromide]	still in form II

Same assay, conditions: ICH conditions 40° C./75% r.h., 1 month; listed as form II, hydrobromide

Molecule	PXRD profile / crystalline form after storage (words)
Br.CC(NC(C)(C)C)C(=O)c1cccc(Cl)c1 (stereo not drawn) [Form II, bupropion hydrobromide]	no change in the PXRD profile

Same assay, conditions: accelerated (40° C./75% RH) and shelf life conditions, 3 months and 6 months

Molecule	PXRD profile after storage
Br.CC(NC(C)(C)C)C(=O)c1cccc(Cl)c1 (stereo not drawn) [Form I, bupropion hydrobromide]	gave the same results
